Assay results published in PubChem BioAssay (NCI).
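Interpolation was linear, between the two tested concentrations surrounding the appropriate level; five concentrations were tested over 48 hours in 96-well plates. At the TGI there is no net growth.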

Assays:
Assay in all cases: NCI tumour cell line growth inhibition, 48 h
DLD-1 colon = tested on: DLD-1 colon
MOLT-4 leukemia = tested on: MOLT-4 leukemia
HL-60(TB) leukemia = tested on: HL-60(TB) leukemia
M19-MEL melanoma = tested on: M19-MEL melanoma
RXF 393 renal = tested on: RXF 393 renal
HCC-2998 colon = tested on: HCC-2998 colon
HT29 colon = tested on: HT29 colon
SK-MEL-5 melanoma = tested on: SK-MEL-5 melanoma
CCRF-CEM leukemia = tested on: CCRF-CEM leukemia
SNB-75 CNS = tested on: SNB-75 CNS
HCT-116 colon = tested on: HCT-116 colon
NCI-H522 lung = tested on: NCI-H522 lung
SN12C renal = tested on: SN12C renal
EKVX NSCLC = tested on: EKVX NSCLC
786-0 renal = tested on: 786-0 renal
SR leukemia = tested on: SR leukemia
HCT-15 colon = tested on: HCT-15 colon
M14 melanoma = tested on: M14 melanoma
SK-MEL-28 melanoma = tested on: SK-MEL-28 melanoma
SF-268 CNS = tested on: SF-268 CNS
SNB-19 CNS = tested on: SNB-19 CNS
UACC-62 melanoma = tested on: UACC-62 melanoma
DMS 273 small cell lung = tested on: DMS 273 small cell lung
IGROV1 ovarian = tested on: IGROV1 ovarian
HOP-92 NSCLC = tested on: HOP-92 NSCLC
SW-620 colon = tested on: SW-620 colon
U251 CNS = tested on: U251 CNS
UACC-257 melanoma = tested on: UACC-257 melanoma
HOP-62 NSCLC = tested on: HOP-62 NSCLC
OVCAR-3 ovarian = tested on: OVCAR-3 ovarian
KM20L2 colon = tested on: KM20L2 colon
SK-MEL-2 melanoma = tested on: SK-MEL-2 melanoma
SF-539 CNS = tested on: SF-539 CNS
A549 NSCLC = tested on: A549 NSCLC
UO-31 renal = tested on: UO-31 renal
SK-OV-3 ovarian = tested on: SK-OV-3 ovarian
ACHN renal = tested on: ACHN renal
DMS 114 small cell lung = tested on: DMS 114 small cell lung
KM12 colon = tested on: KM12 colon
HOP-18 NSCLC = tested on: HOP-18 NSCLC
NCI-H226 lung = tested on: NCI-H226 lung
OVCAR-4 ovarian = tested on: OVCAR-4 ovarian
LOX IMVI melanoma = tested on: LOX IMVI melanoma
NCI-H460 lung = tested on: NCI-H460 lung
OVCAR-8 ovarian = tested on: OVCAR-8 ovarian
SF-295 CNS = tested on: SF-295 CNS
NCI-H23 lung = tested on: NCI-H23 lung
TK-10 renal = tested on: TK-10 renal
RPMI-8226 leukemia = tested on: RPMI-8226 leukemia
OVCAR-5 ovarian = tested on: OVCAR-5 ovarian
XF 498 CNS = tested on: XF 498 CNS
K-562 leukemia = tested on: K-562 leukemia
MALME-3M melanoma = tested on: MALME-3M melanoma
COLO 205 colon = tested on: COLO 205 colon
LXFL 529 NSCLC = tested on: LXFL 529 NSCLC
A498 renal = tested on: A498 renal
SNB-78 CNS = tested on: SNB-78 CNS

**Q.** How did the TGI (DLD-1 colon) turn out when `Cc1cc2occ(C)c(=O)c2c2c1OC(C)(C)S2` was run?
**A.** > 100 µM

**Q.** What about the TGI (MOLT-4 leukemia) of the same compound?
**A.** > 100 µM

**Q.** And the TGI (HL-60(TB) leukemia)?
**A.** > 100 µM

**Q.** What about the TGI (M19-MEL melanoma) of the same compound?
**A.** > 100 µM

**Q.** What about the TGI (RXF 393 renal) of the same compound?
**A.** > 100 µM

**Q.** What about the TGI (HCC-2998 colon) of the same compound?
**A.** > 100 µM

**Q.** What about the TGI (HT29 colon) of the same compound?
**A.** > 100 µM

**Q.** And the TGI (SK-MEL-5 melanoma)?
**A.** > 100 µM

**Q.** What about the TGI (CCRF-CEM leukemia) of the same compound?
**A.** > 100 µM

**Q.** What about the TGI (SNB-75 CNS) of the same compound?
**A.** > 100 µM

**Q.** And the TGI (HCT-116 colon)?
**A.** > 100 µM

**Q.** And the TGI (NCI-H522 lung)?
**A.** > 100 µM

**Q.** What about the TGI (SN12C renal) of the same compound?
**A.** > 100 µM

**Q.** What about the TGI (EKVX NSCLC) of the same compound?
**A.** > 100 µM

**Q.** And the TGI (786-0 renal)?
**A.** > 100 µM

**Q.** And the TGI (SR leukemia)?
**A.** > 100 µM

**Q.** And the TGI (HCT-15 colon)?
**A.** > 100 µM

**Q.** And the TGI (M14 melanoma)?
**A.** > 100 µM

**Q.** What about the TGI (SK-MEL-28 melanoma) of the same compound?
**A.** > 100 µM

**Q.** And the TGI (SF-268 CNS)?
**A.** > 100 µM

**Q.** What about the TGI (SNB-19 CNS) of the same compound?
**A.** > 100 µM

**Q.** And the TGI (UACC-62 melanoma)?
**A.** > 100 µM

**Q.** What about the TGI (DMS 273 small cell lung) of the same compound?
**A.** > 100 µM

**Q.** What about the TGI (IGROV1 ovarian) of the same compound?
**A.** > 100 µM

**Q.** And the TGI (HOP-92 NSCLC)?
**A.** > 100 µM

**Q.** And the TGI (SW-620 colon)?
**A.** > 100 µM

**Q.** And the TGI (U251 CNS)?
**A.** > 100 µM

**Q.** And the TGI (UACC-257 melanoma)?
**A.** > 100 µM

**Q.** And the TGI (HOP-62 NSCLC)?
**A.** > 100 µM

**Q.** What about the TGI (OVCAR-3 ovarian) of the same compound?
**A.** > 100 µM

**Q.** And the TGI (KM20L2 colon)?
**A.** > 100 µM

**Q.** What about the TGI (SK-MEL-2 melanoma) of the same compound?
**A.** > 100 µM

**Q.** What about the TGI (SF-539 CNS) of the same compound?
**A.** > 100 µM

**Q.** What about the TGI (A549 NSCLC) of the same compound?
**A.** > 100 µM

**Q.** And the TGI (UO-31 renal)?
**A.** > 100 µM

**Q.** What about the TGI (SK-OV-3 ovarian) of the same compound?
**A.** > 100 µM

**Q.** What about the TGI (ACHN renal) of the same compound?
**A.** > 100 µM

**Q.** And the TGI (DMS 114 small cell lung)?
**A.** > 100 µM

**Q.** What about the TGI (KM12 colon) of the same compound?
**A.** > 100 µM

**Q.** And the TGI (HOP-18 NSCLC)?
**A.** > 100 µM

**Q.** And the TGI (NCI-H226 lung)?
**A.** > 100 µM

**Q.** And the TGI (OVCAR-4 ovarian)?
**A.** > 100 µM

**Q.** What about the TGI (LOX IMVI melanoma) of the same compound?
**A.** > 100 µM

**Q.** And the TGI (NCI-H460 lung)?
**A.** > 100 µM

**Q.** What about the TGI (OVCAR-8 ovarian) of the same compound?
**A.** > 100 µM

**Q.** What about the TGI (SF-295 CNS) of the same compound?
**A.** > 100 µM

**Q.** And the TGI (NCI-H23 lung)?
**A.** > 100 µM

**Q.** What about the TGI (TK-10 renal) of the same compound?
**A.** > 100 µM

**Q.** And the TGI (RPMI-8226 leukemia)?
**A.** > 100 µM

**Q.** What about the TGI (OVCAR-5 ovarian) of the same compound?
**A.** > 100 µM

**Q.** And the TGI (XF 498 CNS)?
**A.** > 100 µM

**Q.** What about the TGI (K-562 leukemia) of the same compound?
**A.** > 100 µM

**Q.** And the TGI (MALME-3M melanoma)?
**A.** > 100 µM

**Q.** And the TGI (COLO 205 colon)?
**A.** > 100 µM

**Q.** And the TGI (LXFL 529 NSCLC)?
**A.** > 100 µM

**Q.** With `O=C(N=Nc1c(O)[nH]c2ccccc12)c1ccccc1O` as the compound, how does the TGI (DLD-1 colon) read?
**A.** > 100 µM

**Q.** What about the TGI (A498 renal) of the same compound?
**A.** 94.6 µM

**Q.** And the TGI (MOLT-4 leukemia)?
**A.** > 100 µM

**Q.** And the TGI (HL-60(TB) leukemia)?
**A.** > 100 µM

**Q.** What about the TGI (M19-MEL melanoma) of the same compound?
**A.** > 100 µM

**Q.** What about the TGI (RXF 393 renal) of the same compound?
**A.** > 100 µM

**Q.** What about the TGI (HCC-2998 colon) of the same compound?
**A.** > 100 µM

**Q.** What about the TGI (HT29 colon) of the same compound?
**A.** > 100 µM

**Q.** What about the TGI (CCRF-CEM leukemia) of the same compound?
**A.** > 100 µM

**Q.** What about the TGI (SNB-75 CNS) of the same compound?
**A.** 94.2 µM

**Q.** What about the TGI (HCT-116 colon) of the same compound?
**A.** > 100 µM

**Q.** And the TGI (NCI-H522 lung)?
**A.** > 100 µM

**Q.** And the TGI (SN12C renal)?
**A.** > 100 µM

**Q.** What about the TGI (EKVX NSCLC) of the same compound?
**A.** > 100 µM

**Q.** And the TGI (786-0 renal)?
**A.** > 100 µM

**Q.** What about the TGI (HCT-15 colon) of the same compound?
**A.** > 100 µM

**Q.** What about the TGI (M14 melanoma) of the same compound?
**A.** > 100 µM

**Q.** What about the TGI (SK-MEL-28 melanoma) of the same compound?
**A.** > 100 µM

**Q.** What about the TGI (SF-268 CNS) of the same compound?
**A.** > 100 µM

**Q.** And the TGI (SNB-19 CNS)?
**A.** > 100 µM

**Q.** What about the TGI (UACC-62 melanoma) of the same compound?
**A.** > 100 µM

**Q.** And the TGI (SW-620 colon)?
**A.** > 100 µM

**Q.** What about the TGI (U251 CNS) of the same compound?
**A.** 72.2 µM

**Q.** And the TGI (UACC-257 melanoma)?
**A.** > 100 µM

**Q.** What about the TGI (HOP-62 NSCLC) of the same compound?
**A.** > 100 µM

**Q.** And the TGI (OVCAR-3 ovarian)?
**A.** > 100 µM

**Q.** And the TGI (KM20L2 colon)?
**A.** > 100 µM

**Q.** What about the TGI (SK-MEL-2 melanoma) of the same compound?
**A.** 63.6 µM

**Q.** And the TGI (SF-539 CNS)?
**A.** > 100 µM

**Q.** What about the TGI (A549 NSCLC) of the same compound?
**A.** > 100 µM

**Q.** What about the TGI (UO-31 renal) of the same compound?
**A.** 79.9 µM

**Q.** And the TGI (SK-OV-3 ovarian)?
**A.** 46.6 µM

**Q.** What about the TGI (ACHN renal) of the same compound?
**A.** > 100 µM

**Q.** And the TGI (DMS 114 small cell lung)?
**A.** > 100 µM

**Q.** And the TGI (SNB-78 CNS)?
**A.** > 100 µM

**Q.** What about the TGI (KM12 colon) of the same compound?
**A.** > 100 µM

**Q.** And the TGI (HOP-18 NSCLC)?
**A.** > 100 µM

**Q.** And the TGI (NCI-H226 lung)?
**A.** > 100 µM

**Q.** What about the TGI (OVCAR-4 ovarian) of the same compound?
**A.** > 100 µM

**Q.** What about the TGI (LOX IMVI melanoma) of the same compound?
**A.** > 100 µM

**Q.** And the TGI (NCI-H460 lung)?
**A.** > 100 µM

**Q.** What about the TGI (OVCAR-8 ovarian) of the same compound?
**A.** > 100 µM

**Q.** What about the TGI (SF-295 CNS) of the same compound?
**A.** > 100 µM

**Q.** What about the TGI (NCI-H23 lung) of the same compound?
**A.** 92 µM

**Q.** And the TGI (TK-10 renal)?
**A.** > 100 µM

**Q.** And the TGI (RPMI-8226 leukemia)?
**A.** > 100 µM

**Q.** And the TGI (OVCAR-5 ovarian)?
**A.** > 100 µM

**Q.** And the TGI (K-562 leukemia)?
**A.** > 100 µM

**Q.** What about the TGI (MALME-3M melanoma) of the same compound?
**A.** > 100 µM

**Q.** And the TGI (COLO 205 colon)?
**A.** > 100 µM

**Q.** And the TGI (LXFL 529 NSCLC)?
**A.** > 100 µM
